Residue numbers refer to the chain shown, from its start. Entries after “also recorded” stand apart in the source; their conditions may differ.
Legend:
smooth muscle cell = details: cited from earlier work
PAR4 [1] = test: PAR4-AP-induced platelet aggregation, light transmission aggregometry, donors genotyped for rs773902; assay type: cell-based, human; details: 100 μM PAR4-AP
Protocol: (§1) FIGS. 5A-5C show PAR4 variants are differentially susceptible to pharmacological inhibition. Platelets from donors genotyped for […] were washed, incubated with the indicated concentrations of vorapaxar (VPX) (FIGS. 5A, 5B) or YD-3 (FIG. 5C) and then stimulated with (FIG. 5A) 5 μM PAR1-AP or (FIGS. 5B, 5C) 100 μM PAR4-AP. Aggregation was measured using light transmission aggregometry. n=3 each genotype. Horizontal lines indicate mean. (P=0.02). […] Craig Lindsley at Vanderbilt University) as previously described.^27 Aggregation was then quantified after stimulation with 5 μM PAR1-AP or 100 μM PAR4-AP.

[2] = oral, rat carotid balloon injury; cited from earlier work
PAR4 [3] = target: T1, PAR4 (Homo sapiens, UniProt Q96RI0); details: cited from earlier work
T1 construct: host or cells: platelets (cited work)
T1 sequence (Q96RI0 18-385): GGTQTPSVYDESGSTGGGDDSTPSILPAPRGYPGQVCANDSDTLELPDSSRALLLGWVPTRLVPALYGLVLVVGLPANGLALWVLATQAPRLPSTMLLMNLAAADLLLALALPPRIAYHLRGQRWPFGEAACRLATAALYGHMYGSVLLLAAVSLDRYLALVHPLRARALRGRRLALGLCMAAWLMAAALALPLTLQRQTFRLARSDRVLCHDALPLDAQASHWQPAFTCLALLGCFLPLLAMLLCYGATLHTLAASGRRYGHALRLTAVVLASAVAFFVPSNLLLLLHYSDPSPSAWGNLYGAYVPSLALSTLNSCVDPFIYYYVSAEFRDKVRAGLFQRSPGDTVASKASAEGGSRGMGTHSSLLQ

platelets [4] = details: cited from earlier work
platelets [5] = details: cited from earlier work; remark: listed apart in the source
PAR4-Thr120 = target: T2, PAR4-Thr120 (Homo sapiens, UniProt Q96RI0, A120T); test: PAR4-AP-induced platelet aggregation, platelets of PAR4-Thr120 homozygotes; assay type: cell-based; details: homozygous PAR4-Thr120, up to 1 μM YD-3, 100 μM PAR4-AP, FIG. 5C
T2 construct: endogenous in cells; host or cells: washed platelets of human donors homozygous for rs773902 A (Thr120)
T2 sequence (Q96RI0 18-385 A120T): T1 sequence (Q96RI0 18-385) with A103T
Protocol: (§2) FIGS. 5A-5C show PAR4 variants are differentially susceptible to pharmacological inhibition. Platelets from donors genotyped for rs773902 were washed, incubated with the indicated concentrations of vorapaxar (VPX) (FIGS. 5A, 5B) or YD-3 (FIG. 5C) and then stimulated with (FIG. 5A) 5 μM PAR1-AP or (FIGS. 5B, 5C) 100 μM PAR4-AP. Aggregation was measured using light transmission aggregometry. n=3 each genotype. Horizontal lines indicate mean. (P=0.02).
(§3) Platelets were pre-incubated with the indicated concentrations of vorapaxar^26 (Axon Medchem, Reston, Va., USA) or YD-3 [1-benzyl-3-(ethoxycarbonylphenyl)-indazole]^7 (a gift from Dr. Craig Lindsley at Vanderbilt University) as previously described.^27 Aggregation was then quantified after stimulation with 5 μM PAR1-AP or 100 μM PAR4-AP.
(§4) Multiple linear regression analysis was performed including the PAR4 protein level and the risk SNPs as explanatory variables and PAR4 reactivity as the dependent variable. To determine fraction of variance of PAR4 reactivity explained by PAR4 protein levels and F2RL3 genotype, PAR4 protein level was brought into the model first followed by rs773902 genotype. To test for an interaction between rs773902 and YD-3, a linear regression was performed, using aggregation as the dependent variable and PAR4-AP concentration, YD3 concentration, and rs773902 genotype as […]. […]

PAR4-Ala120 = target: T3, PAR4-Ala120 (Homo sapiens, UniProt Q96RI0); test: PAR4-AP-induced platelet aggregation, platelets of PAR4-Ala120 homozygotes; assay type: cell-based; details: 0.5 μM YD-3, 100 μM PAR4-AP, FIG. 5C
T3 construct: endogenous in cells; host or cells: washed platelets of human donors homozygous for rs773902 G (Ala120)
T3 sequence (Q96RI0 18-385): T1 sequence (Q96RI0 18-385)
Protocol: as §2, §3, §4

PAR1 = target: T4, PAR1 (Homo sapiens, UniProt P25116); test: PAR1-AP-induced platelet aggregation, light transmission aggregometry; assay type: cell-based; details: washed platelets, 5 μM PAR1-AP, FIG. 5A
T4 construct: endogenous in cells; host or cells: washed platelets of healthy human donors (cohort 2)
T4 sequence (P25116 22-425): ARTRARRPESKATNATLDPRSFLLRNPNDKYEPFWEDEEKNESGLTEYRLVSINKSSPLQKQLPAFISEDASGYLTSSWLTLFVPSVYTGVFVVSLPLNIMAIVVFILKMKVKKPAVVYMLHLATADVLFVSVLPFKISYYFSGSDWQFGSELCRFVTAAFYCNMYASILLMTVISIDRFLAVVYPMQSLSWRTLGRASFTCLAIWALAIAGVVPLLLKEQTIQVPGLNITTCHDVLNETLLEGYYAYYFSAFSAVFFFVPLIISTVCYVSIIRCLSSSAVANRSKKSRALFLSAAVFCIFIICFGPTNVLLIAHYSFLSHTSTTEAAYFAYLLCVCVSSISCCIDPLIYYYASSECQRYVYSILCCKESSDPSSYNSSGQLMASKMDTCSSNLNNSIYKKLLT
Protocol: as §1, with “Platelets” for “FIGS. 5A-5C show PAR4 variants are differentially susceptible to pharmacological inhibition. Platelets”, “mean.” for “mean. (P=0.02).”

SMILES	block of thrombin-induced smooth muscle cell proliferation (smooth muscle cell)	inhibition of PAR4-induced platelet aggregation (PAR4 [1]; rs773902 heterozygotes, FIG. 5C)	intimal thickening [2]	block of PAR4-induced platelet aggregation (PAR4 [3])	block of neutrophil-induced platelet aggregation (platelets [4])	block of thrombin-induced platelet recruitment (platelets [5])	inhibition of PAR4-induced platelet aggregation (PAR4-Thr120)	inhibition of PAR4-induced platelet aggregation (PAR4-Ala120)	effect on PAR4-induced platelet aggregation (PAR4 [1]; washed platelets, regardless of rs773902 genotype, FIG. 5B)	inhibition of platelet aggregation through PAR1 (PAR1)
CCOC(=O)c1ccc(-c2nn(Cc3ccccc3)c3ccccc23)cc1 [YD-3, ethyl 4-(1-benzyl-1H-indazol-3-yl)benzoate]	blocks	intermediate response	attenuates	specifically blocks; also recorded: blocking	blocks	blocks	resistant	inhibited	–	–
CCOC(=O)N[C@@H]1CC[C@@H]2[C@@H](C1)C[C@H]1C(=O)O[C@H](C)[C@H]1[C@H]2/C=C/c1ccc(-c2cccc(F)c2)cn1 [vorapaxar]	–	–	–	–	–	–	–	–	no effect	efficiently inhibited
